Patent US20100267561A1, “HERBICIDAL PYRIDAZINONE DERIVATIVES” (priority 2007, published 2010)

What was measured:
Format in all cases: in vivo
[1] = system: barnyardgrass (Echinochloa crus-galli); test: Test A pre-/postemergence plant response
From the text: (§1) Seeds of species selected from barnyardgrass (Echinochloa crus-galli), large crabgrass (Digitaria sanguinalis), giant foxtail (Setaria faberi), blackgrass (Alopecurus myosuroides), canarygrass (Phalaris minor), morningglory (Ipomoea coccinea), pigweed (Amaranthus retroflexus), velvetleaf (Abutilon theophrasti), wheat (Triticum aestivum), and corn (Zea mays) were planted into a blend of loam soil and sand and treated preemergence with a directed soil spray using test chemicals formulated in a non-phytotoxic solvent mixture which included a surfactant. At the same time these species were also treated with postemergence applications of test chemicals formulated in the same manner.
(§2) Plants ranged in height from 2 to 10 cm and were in the one- to two-leaf stage for the postemergence treatment. Treated plants and untreated controls were maintained in a greenhouse for approximately 10 days, after which time all treated plants were compared to untreated controls and visually evaluated for injury. Plant response ratings, summarized in Table A, are based on a 0 to 100 scale where 0 is no effect and 100 is complete control. A dash (-) response means no test results.

[2] = system: corn (Zea mays); test: Test A pre-/postemergence plant response
From the text: as §1, §2

[3] = system: giant foxtail (Setaria faberi); test: Test A pre-/postemergence plant response
From the text: as §1, §2

[4] = system: large crabgrass (Digitaria sanguinalis); test: Test A pre-/postemergence plant response
From the text: as §1, §2

[5] = system: morningglory (Ipomoea coccinea); test: Test A pre-/postemergence plant response
From the text: as §1, §2

[6] = system: pigweed (Amaranthus retroflexus); test: Test A pre-/postemergence plant response
From the text: as §1, §2

[7] = system: velvetleaf (Abutilon theophrasti); test: Test A pre-/postemergence plant response
From the text: as §1, §2

[8] = system: wheat (Triticum aestivum); test: Test A pre-/postemergence plant response
From the text: as §1, §2

[9] = system: barnyardgrass (Echinochloa crus-galli); test: Test B flooded paddy test plant response
From the text: (§3) Plant species in the flooded paddy test consisted of rice (Oryza sativa), umbrella sedge (Cyperus difformis), ducksalad (Heteranthera limosa) and barnyardgrass (Echinochloa crus-galli) grown to the 2-leaf stage for testing. At time of treatment, test pots were flooded to 3 cm above the soil surface, treated by application of test compounds directly to the paddy water, and then maintained at that water depth for the duration of the test. Treated plants and controls were maintained in a greenhouse for 13 to 15 days, after which time all species were compared to controls and visually evaluated. Plant response ratings, summarized in Table B, are based on a scale of 0 to 100 where 0 is no effect and 100 is complete control. A dash (-) response means no test result.

[10] = system: ducksalad (Heteranthera limosa); test: Test B flooded paddy test plant response
From the text: as §3

[11] = system: rice (Oryza sativa); test: Test B flooded paddy test plant response
From the text: as §3

[12] = system: umbrella sedge (Cyperus difformis); test: Test B flooded paddy test plant response
From the text: as §3

[13] = Postemergence, 125 g ai/ha, 0 to 100 scale, 0 no effect, 100 complete control
[14] = Postemergence, 500 g ai/ha, 0 to 100 scale, 0 no effect, 100 complete control
[15] = Preemergence, 125 g ai/ha, 0 to 100 scale (0 no effect, 100 complete control)
[16] = Preemergence, 500 g ai/ha, 0 to 100 scale (0 no effect, 100 complete control)
[17] = Flood (flooded paddy test), 62 g ai/ha, scale 0 to 100, 0 no effect, 100 complete control
[18] = Flood (flooded paddy test), 125 g ai/ha, scale 0 to 100, 0 no effect, 100 complete control
[19] = Flood (flooded paddy test), 250 g ai/ha, scale 0 to 100, 0 no effect, 100 complete control
[20] = Flood, 31 g ai/ha, scale 0 to 100

Compound: Cc1nn(-c2ccc(Cl)cc2)cc1-c1c(O)cnn(C)c1=O [Compound 29]
- Plant response rating, Barnyardgrass [1, 13]: 10
- Plant response rating, Barnyardgrass [1, 14]: 50
- Plant response rating, Barnyardgrass [1, 15]: 0
- Plant response rating, Barnyardgrass [1, 16]: 70
- Plant response rating, Corn [2, 13]: 0
- Plant response rating, Corn [2, 14]: 0
- Plant response rating, Corn [2, 15]: 0
- Plant response rating, Corn [2, 16]: 0
- Plant response rating, Foxtail, Giant [3, 13]: 0
- Plant response rating, Foxtail, Giant [3, 14]: 80
- Plant response rating, Foxtail, Giant [3, 15]: 60
- Plant response rating, Foxtail, Giant [3, 16]: 100
- Plant response rating, Crabgrass, Large [4, 13]: 0
- Plant response rating, Crabgrass, Large [4, 14]: 50
- Plant response rating, Crabgrass, Large [4, 15]: 0
- Plant response rating, Crabgrass, Large [4, 16]: 40
- Plant response rating, Morningglory [5, 13]: 0
- Plant response rating, Morningglory [5, 14]: 0
- Plant response rating, Morningglory [5, 15]: 0
- Plant response rating, Morningglory [5, 16]: 0
- Plant response rating, Pigweed [6, 13]: 0
- Plant response rating, Pigweed [6, 14]: 0
- Plant response rating, Pigweed [6, 15]: 0
- Plant response rating, Pigweed [6, 16]: 0
- Plant response rating, Velvetleaf [7, 13]: 0
- Plant response rating, Velvetleaf [7, 14]: 0
- Plant response rating, Velvetleaf [7, 15]: 0
- Plant response rating, Velvetleaf [7, 16]: 0
- Plant response rating, Wheat [8, 13]: 0
- Plant response rating, Wheat [8, 14]: 20
- Plant response rating, Wheat [8, 15]: 0
- Plant response rating, Wheat [8, 16]: 0
- Plant response rating, Barnyardgrass [9, 17]: 0
- Plant response rating, Barnyardgrass [9, 18]: 0
- Plant response rating, Barnyardgrass [9, 19]: 0
- Plant response rating, Barnyardgrass [9, 20]: 0
- Plant response rating, Ducksalad [10, 17]: 0
- Plant response rating, Ducksalad [10, 18]: 0
- Plant response rating, Ducksalad [10, 19]: 0
- Plant response rating, Ducksalad [10, 20]: 0
- Plant response rating, Rice [11, 17]: 0
- Plant response rating, Rice [11, 18]: 0
- Plant response rating, Rice [11, 19]: 0
- Plant response rating, Rice [11, 20]: 0
- Plant response rating, Sedge, Umbrella [12, 17]: 0
- Plant response rating, Sedge, Umbrella [12, 18]: 0
- Plant response rating, Sedge, Umbrella [12, 19]: 0
- Plant response rating, Sedge, Umbrella [12, 20]: 0

Compound: COc1ccc(-c2cc(C)n(-c3c(O)cnn(C)c3=O)n2)cc1 [Compound 62]
- Plant response rating, Barnyardgrass [1, 13]: 40
- Plant response rating, Barnyardgrass [1, 14]: 100
- Plant response rating, Barnyardgrass [1, 15]: 10
- Plant response rating, Barnyardgrass [1, 16]: 90
- Plant response rating, Corn [2, 13]: 0
- Plant response rating, Corn [2, 14]: 40
- Plant response rating, Corn [2, 15]: 0
- Plant response rating, Corn [2, 16]: 20
- Plant response rating, Foxtail, Giant [3, 13]: 40
- Plant response rating, Foxtail, Giant [3, 14]: 60
- Plant response rating, Foxtail, Giant [3, 15]: 0
- Plant response rating, Foxtail, Giant [3, 16]: 30
- Plant response rating, Crabgrass, Large [4, 13]: 50
- Plant response rating, Crabgrass, Large [4, 14]: 90
- Plant response rating, Crabgrass, Large [4, 15]: 20
- Plant response rating, Crabgrass, Large [4, 16]: 60
- Plant response rating, Morningglory [5, 13]: 0
- Plant response rating, Morningglory [5, 14]: 0
- Plant response rating, Morningglory [5, 15]: 0
- Plant response rating, Morningglory [5, 16]: 0
- Plant response rating, Pigweed [6, 13]: 0
- Plant response rating, Pigweed [6, 14]: 0
- Plant response rating, Pigweed [6, 15]: 0
- Plant response rating, Pigweed [6, 16]: 0
- Plant response rating, Velvetleaf [7, 13]: 0
- Plant response rating, Velvetleaf [7, 14]: 0
- Plant response rating, Velvetleaf [7, 15]: 0
- Plant response rating, Velvetleaf [7, 16]: 0
- Plant response rating, Wheat [8, 13]: 0
- Plant response rating, Wheat [8, 14]: 20
- Plant response rating, Wheat [8, 15]: 0
- Plant response rating, Wheat [8, 16]: 0
- Plant response rating, Barnyardgrass [9, 17]: 0
- Plant response rating, Barnyardgrass [9, 18]: 0
- Plant response rating, Barnyardgrass [9, 19]: 0
- Plant response rating, Barnyardgrass [9, 20]: 0
- Plant response rating, Ducksalad [10, 17]: 0
- Plant response rating, Ducksalad [10, 18]: 0
- Plant response rating, Ducksalad [10, 19]: 0
- Plant response rating, Ducksalad [10, 20]: 0
- Plant response rating, Rice [11, 17]: 0
- Plant response rating, Rice [11, 18]: 0
- Plant response rating, Rice [11, 19]: 0
- Plant response rating, Rice [11, 20]: 0
- Plant response rating, Sedge, Umbrella [12, 17]: 0
- Plant response rating, Sedge, Umbrella [12, 18]: 0
- Plant response rating, Sedge, Umbrella [12, 19]: 0
- Plant response rating, Sedge, Umbrella [12, 20]: 0
